Results as given in patent US11667631B2, “FGFR4 inhibitor, preparation method therefor, and applications thereof” (Jiangsu Hansoh Pharmaceutical Group Co., Ltd., priority 2016, dated 2023).
Like-named read-outs stand apart in the source and are kept apart here.

Legend:
[1] = Pharmacokinetic (PK) analysis in rats; assay type: in vivo, Sprague Dawley (SD) rats; settings: SD rats, single intragastric administration, 5 mg/kg; for Peak Time tmax: (sampling in hours); for AUC(0-t) / AUC(0-inf) / half-life / MRT / Cmax: Sprague-Dawley, rat, plasma, po; for AUC(0-t): read-out: Area Under Curve AUC0-t; for AUC(0-inf): read-out: Area Under Curve AUC0-∞; for half-life: read-out: Half-Time t1/2 (converted); for MRT: read-out: Mean Residence Time MRT; for Cmax: read-out: Plasma Concentration Cmax
Protocol: 1) 0.2 ml of intravenous blood was collected and placed in a K2EDTA test tube. The blood was centrifuged at room temperature at the speed of 1000˜3000×g for 5˜20 minutes to isolate the plasma, which was then stored at −80° C.
2) 160 μL of acetonitrile was added to 40 μL of plasma sample for precipitation, and then the mixture was centrifuged at the speed of 500˜2000×g for 5˜20 minutes.
3) 100 μL of treated solution was taken, and the concentration of the test compound was analyzed by LC/MS/MS. The LC/MS/MS analytical instrument was AB Sciex API 4000. • Liquid chromatography analysis: • Condition of Liquid chromatography: Shimadzu LC-20AD pump • Chromatographic column: phenomenex Gemiu 5 um C18 50×4.6 mm • Mobile phase: Solution A is 0.1% formic acid aqueous solution, and Solution B is acetonitrile • Flow rate: 0.8 mL/min • Elution time: 0-3.5 minutes, the eluent was used as follows: […]

SK-HEP-1 cells = test: Inhibition of SK-HEP-1 cell proliferation (CellTiter-Glo); assay type: cell-based; settings: Homo sapiens, SK-HEP1, 72 h, read-out: SK-HEP-1 IC50
Protocol: In this experiment, the inhibitory effect of the compounds on SK-HEP-1 cell proliferation was tested by a CellTiter-Glo method, and the half maximal inhibitory concentration (IC50) of the compounds on the activity of cell proliferation was determined.
1) A 96-well cell culture plate was seeded with 50˜100 μL of SK-HEP-1 cell suspension at a density of 1˜5×10^4 cells/ml. The culture plate was incubated in an incubator for 16˜24 hours (37° C., 5% CO2).
(§1) 2) Different concentrations of the test compound in a gradient dilution were added to the cells in the culture plate. The culture plate was incubated in an incubator for 72 hours (37° C., 5% CO2).
(§2) 3) 50˜100 μL of CellTiter-Glo reagent were added to each well. Then, the culture plate was shaken or left to stand for 5˜30 minutes at room temperature.
(§3) 4) The chemiluminescence signal values of each plate were determined by a microplate reader.
(§4) 5) The inhibition rates were calculated according to the chemiluminescence signal values.
(§5) 6) The IC50 of the compound was obtained by curve fitting according to the inhibition rates at different concentrations, and the cell activity of the specific example compounds is shown in Table 2.

Hep 3B cells = test: Inhibition of Hep 3B cell proliferation (CellTiter-Glo); assay type: cell-based
Protocol: In this experiment, the inhibitory effect of the compounds on Hep 3B cell proliferation was tested by a CellTiter-Glo method, and the half maximal inhibitory concentration (IC50) of the compounds on the activity of cell proliferation was determined.
1) A 96-well cell culture plate was seeded with 50˜100 μL of Hep 3B cell suspension at a density of 1˜5×10^4 cells/ml. The culture plate was incubated in an incubator for 16˜24 hours (37° C., 5% CO2).
as §1, §2, §3, §4

FGFR1 kinase = FGFR1 kinase (Homo sapiens (Human), UniProt P11362); test: Enzymologic experiment of FGFR1 (TR-FRET); assay type: biochemical; settings: FGFR1 kinase activity
Protocol: In this experiment, the inhibitory effect of the compounds on FGFR1 kinase activity was tested by a fluorescence resonance energy transfer (TR-FRET) method, and the half maximal inhibitory concentration (IC50) of the compounds on the FGFR1 kinase activity was determined.
1) 1˜5 μL of FGFR1 enzyme solution was added to a 384-well plate, and the final concentration of the enzyme was 0.1˜5 nM.
2) 1˜5 μL of diluted solution in gradient of the compound was added.
3) 1˜5 μL of a substrate mixture containing substrate polypeptide with a final concentration of 5˜50 nM and ATP with a final concentration of 10˜200 μM was added.
4) The mixture was incubated for 0.5˜3 hours at room temperature.
5) 10 μL of EDTA and a test solution comprising labeled antibody were added, and the plate was incubated for 1 hour at room temperature.
6) The fluorescence signal values of each plate were determined by a microplate reader at 665 nm.
7) The inhibition rates were calculated according to the fluorescence signal values.
8) The IC50 of the compound was obtained by curve fitting according to the inhibition rates at different concentrations, and the enzymatic activity of the specific example compounds is shown in Table 1.

HuH-7 cells = test: Inhibition of HuH-7 cell proliferation (CellTiter-Glo); assay type: cell-based; settings: Homo sapiens, Huh-7, 72 h, read-out: HuH-7 IC50
Protocol: In this experiment, the inhibitory effect of the compounds on HuH-7 cell proliferation was tested by a CellTiter-Glo method, and the half maximal inhibitory concentration (IC50) of the compounds on the activity of cell proliferation was determined.
1) A 96-well cell culture plate was seeded with 50˜100 μL of HuH-7 cell suspension at a density of 1˜5×10^4 cells/ml. The culture plate was incubated in an incubator for 16˜24 hours (37° C., 5% CO2).
as §1
3) 50˜100 μL of CellTiter-Glo reagent was added to each well. Then, the culture plate was shaken or left to stand for 5˜30 minutes at room temperature.
as §3, §4, §5

[2] = Homo sapiens, Hep3B, 72 h, read-out: Hep 3B IC50, Hep 3B cell proliferation, 72 hours, CellTiter-Glo

Chain of FGFR1 kinase (P11362 22-822): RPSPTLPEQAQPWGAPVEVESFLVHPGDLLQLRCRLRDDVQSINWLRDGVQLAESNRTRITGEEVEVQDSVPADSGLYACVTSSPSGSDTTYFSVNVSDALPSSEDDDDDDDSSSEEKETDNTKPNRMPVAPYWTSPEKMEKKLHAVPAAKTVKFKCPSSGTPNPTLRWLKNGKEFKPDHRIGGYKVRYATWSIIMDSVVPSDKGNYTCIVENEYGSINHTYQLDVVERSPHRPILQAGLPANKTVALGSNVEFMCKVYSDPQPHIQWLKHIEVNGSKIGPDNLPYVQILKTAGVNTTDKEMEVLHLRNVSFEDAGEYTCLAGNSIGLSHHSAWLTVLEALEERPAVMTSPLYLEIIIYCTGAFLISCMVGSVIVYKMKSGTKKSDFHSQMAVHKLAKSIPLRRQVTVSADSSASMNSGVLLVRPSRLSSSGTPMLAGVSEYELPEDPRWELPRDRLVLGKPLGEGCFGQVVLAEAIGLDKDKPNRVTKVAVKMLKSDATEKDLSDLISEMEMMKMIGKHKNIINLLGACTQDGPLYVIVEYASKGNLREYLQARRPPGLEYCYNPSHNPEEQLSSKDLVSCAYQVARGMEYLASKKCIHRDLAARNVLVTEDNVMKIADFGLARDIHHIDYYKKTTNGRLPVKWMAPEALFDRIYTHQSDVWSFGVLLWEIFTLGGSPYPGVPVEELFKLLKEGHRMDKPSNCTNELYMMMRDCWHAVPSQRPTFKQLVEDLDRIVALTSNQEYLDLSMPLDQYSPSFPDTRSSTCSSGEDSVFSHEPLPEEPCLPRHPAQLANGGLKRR

Structure (SMILES)	Peak Time tmax [1]	AUC(0-t) [1]	AUC(0-inf) [1]	half-life [1]	MRT [1]	Cmax [1]	IC50 (SK-HEP-1 cells)	IC50 (Hep 3B cells; [2])	IC50 (FGFR1 kinase)	IC50 (HuH-7 cells)	IC50 (Hep 3B cells; read-out: Hep 3B IC50, Hep 3B cell proliferation, 72 hours, CellTiter-Glo)
COC1CCN(c2cc(NC(=O)N3CCCc4cc(CN5CCOCC5=O)c(C=O)nc43)ncc2C#N)C1 (centres unmarked) [Example 4, N-(5-Cyano-4-(3-methoxypyrrolidin-1-yl)pyridin-2-yl)-7-formyl-6-((3-carbonylmorpholino)methyl)-3,4-dihydro-1,8-naphthyridin-1(2H)-carboxamide]	2 h	8740 ng·h/mL	8740 ng·h/mL	0.61 h	3.07 h	3370 ng/mL	> 10000 nM	2.5 nM	> 10000 nM	18.4 nM	–
COCC1(Nc2cc(NC(=O)N3CCCc4cc(CN5CCOCC5=O)c(C=O)nc43)ncc2C#N)CC1 [Example 11]	2 h	3890 ng·h/mL	3960 ng·h/mL	1.16 h	2.68 h	1540 ng/mL	> 10000 nM	8.4 nM	> 10000 nM	12.4 nM	–
COCCSc1cc(NC(=O)N2CCCc3cc(CN4CCOCC4=O)c(C=O)nc32)ncc1C#N [Example 13, N-(5-Cyano-4-((2-methoxyethyl)thio)pyridin-2-yl)-7-formyl-6-((3-carbonylmorpholino)methyl)-3,4-dihydro-1,8-naphthyridin-1(2H)-carboxamide]	2 h	3510 ng·h/mL	3570 ng·h/mL	1.16 h	2.8 h	1200 ng/mL	> 10000 nM	20.8 nM	> 10000 nM	32.3 nM	–
CO[C@@H]1CCCC1Oc1cc(NC(=O)N2CCCc3cc(CN4CCOCC4=O)c(C=O)nc32)ncc1C#N (stereo partly drawn) [Example 16, N-(5-Cyano-4-(((trans)-2-methoxycyclopentyl)oxy)pyridin-2-yl)-7-formyl-6-((3-carbonylmorpholino)methyl)-3,4-dihydro-1,8-naphthyridin-1(2H)-carboxamide]	2 h	5520 ng·h/mL	5610 ng·h/mL	1.02 h	2.96 h	1600 ng/mL	> 10000 nM	10.5 nM	> 10000 nM	13.2 nM	–
CO[C@@H]1CCN(c2cc(NC(=O)N3CCCc4cc(CN5C(=O)OC[C@@H]5C)c(C=O)nc43)ncc2C#N)C1 [Example 38, N-(5-Cyano-4-((R)-3-methoxypyrrolidin-1-yl)pyridin-2-yl)-7-formyl-6-(((S)-4-methyl-2-carbonyloxazolidin-3-yl)methyl)-3,4-dihydro-1,8-naphthyridin-1(2H)-carboxamide]	2 h	2400 ng·h/mL	2540 ng·h/mL	1.38 h	3.91 h	2660 ng/mL	> 10000 nM	13.3 nM	> 10000 nM	11.8 nM	–
CO[C@H]1CCN(c2cc(NC(=O)N3CCCc4cc(CN5CCOC5=O)c(C=O)nc43)ncc2C#N)C1 [Example 40, (S)-N-(5-Cyano-4-(3-methoxypyrrolidin-1-yl)pyridin-2-yl)-7-formyl-6-((2-carbonyloxazolidin-3-yl)methyl)-3,4-dihydro-1,8-naphthyridin-1(2H)-carboxamide]	2 h	1080 ng·h/mL	1100 ng·h/mL	1.05 h	3.36 h	1560 ng/mL	> 10000 nM	38.7 nM	> 10000 nM	29.6 nM	–
CO[C@@H]1CCN(c2cc(NC(=O)N3CCCc4cc(CN5CCOC5=O)c(C=O)nc43)ncc2C#N)C1 [Example 41, (R)-N-(5-Cyano-4-(3-methoxypyrrolidin-1-yl)pyridin-2-yl)-7-formyl-6-((2-carbonyloxazolidin-3-yl)methyl)-3,4-dihydro-1,8-naphthyridin-1(2H)-carboxamide]	2 h	2880 ng·h/mL	2960 ng·h/mL	1.17 h	3.12 h	1920 ng/mL	> 10000 nM	9.9 nM	> 10000 nM	10.2 nM	–
CO[C@H]1CCN(c2cc(NC(=O)N3CCCc4cc(CN5CCOCC5=O)c(C=O)nc43)ncc2C#N)C1 [Example 51, (S)-N-(5-Cyano-4-(3-methoxypyrrolidin-1-yl)pyridin-2-yl)-7-formyl-6-((3-carbonylmorpholino)methyl)-3,4-dihydro-1,8-naphthyridin-1(2H)-carboxamide]	2 h	3720 ng·h/mL	3730 ng·h/mL	1.15 h	3.84 h	1020 ng/mL	> 10000 nM	25.1 nM	> 10000 nM	27.5 nM	–
CO[C@@H]1CCC[C@H]1Nc1cc(NC(=O)N2CCCc3cc(CN4CCOCC4=O)c(C=O)nc32)ncc1C#N [Example 60, N-(5-Cyano-4-(((1R,2R)-2-methoxycyclopentyl)amino)pyridin-2-yl)-7-formyl-6-((3-carbonylmorpholino)methyl)-3,4-dihydro-1,8-naphthyridin-1(2H)-carboxamide]	2 h	3770 ng·h/mL	3790 ng·h/mL	0.88 h	2.26 h	1300 ng/mL	> 10000 nM	1 nM	> 10000 nM	2.7 nM	–
CO[C@@H]1CCC1Oc1cc(NC(=O)N2CCCc3cc(CN4CCOCC4=O)c(C=O)nc32)ncc1C#N (stereo partly drawn) [Example 61, N-(5-Cyano-4-trans-((1,2)-2-methoxycyclobutoxy)pyridin-2-yl)-7-formyl-6-((3-carbonylmorpholino)methyl)-3,4-dihydro-1,8-naphthyridin-1(2H)-carboxamide]	2 h	2110 ng·h/mL	2120 ng·h/mL	0.75 h	2.96 h	2640 ng/mL	> 10000 nM	3.7 nM	> 10000 nM	6.2 nM	–
CO[C@H]1CCOCC1Oc1cc(NC(=O)N2CCCc3cc(CN4CCOCC4=O)c(C=O)nc32)ncc1C#N (stereo partly drawn) [Example 68, N-(5-Cyano-4-(((3,4)-trans-4-methoxytetrahydro-2H-pyran-3-yl)oxy)pyridin-2-yl) -7-formyl-6-((3-carbonylmorpholino)methyl)-3,4-dihydro-1,8-naphthyridin-1(2H)-carboxamide]	–	–	–	–	–	–	> 10000 nM	–	> 10000 nM	40.8 nM	10.9 nM
